Patent publication US9724358B2, “Minocycline compounds and methods of use thereof” (Paratek Pharmaceuticals, Inc., priority 2008, dated 2017)

Tests used:
[1] = tested on: complicated skin and skin structure infections (CSSSI); assay: Phase 2 study in CSSSI, clinical outcome at test of cure; assay type: in vivo, human
Procedure: (§1) A randomized (1:1), controlled, evaluator-blinded Phase 2 study comparing 9-[(2,2-dimethyl-propyl amino)-methyl-minocycline (compound 1) and linezolid (Zyvox™) for the treatment of complicated skin and skin structure infections (CSSSI) was conducted. Patients with CSSSI who required initial intravenous (IV) therapy and met inclusion and exclusion criteria were enrolled at 11 centers in the US and were randomized to receive either compound 1 (100 mg Q24 h IV with 200 mg Q24 h oral step-down) or linezolid (600 mg Q12 h IV with 600 mg Q12 h oral step-down).
All subjects had four structured evaluations: at Enrollment (Baseline); at End of IV Treatment; at End of Treatment; and at 10 to 17 days after last dose of treatment (test of cure (TOC) evaluation). In addition, the blinded investigator saw each subject daily while they were on IV therapy and at least every 3 days while receiving oral treatment to determine whether to continue current treatment, switch from IV to oral therapy, or discontinue treatment.
(§2) At each of the four structured evaluations, the blinded evaluator assessed the subject, with particular attention to scoring the findings at the primary site of infection and obtaining cultures. Clinical and microbiologic outcomes were determined using these assessments. Primary evaluation criteria was safety and tolerability compared with linezolid. Secondary evaluation criteria was efficacy of compound 1 compared to linezolid, as well as pharmacokinetics of compound 1.
At each scheduled evaluation, the blinded evaluator examined the primary site of infection; for patients with multiple non-contiguous areas of infection, the blinded evaluator identified the most severely affected portion at Enrollment and designated that as the primary site of infection. The following information was recorded for each patient: maximal linear dimension of area of continuous involvement of infection; maximal linear dimension of ulceration, if present; semi-qualitative (scale of 0 to 3; none, mild, marked, severe) description of infection for the following features: erythema, edema/induration, fluctuance, necrotic tissue, purulence (including drainage), and tenderness/pain. In addition, at the Enrollment Evaluation, the following were also recorded the anatomical location of the primary site of infection; and the clinical diagnosis of the type of the infection.
Both the investigational drug, compound 1, and the comparator drug, Zyvox™ were administered intravenously and orally. Patients randomized to linezolid may have received aztreonam IV for suspected or documented gram-negative infection. Subjects were initially treated with study drug IV and then switched to oral therapy. The expected duration of IV treatment was up to 7 days; the expected total duration of treatment (IV and oral) was up to 14 days.
For IV administration, the HCl salt of compound 1 for injection was given as 100 mg in 100 ml sterile saline infused over 30 minutes q24 h. For oral administration, compound 1 100 mg capsules were taken fasting as 2 capsules with 8 oz. water q24 h. No food was to be taken for 30 to 60 minutes after dosing and no dairy products for 4 hours.
Linezolid (Zyvox™) 600 mg tablets and pre-mixed 600 mg IV infusion solution (300 ml volume) were obtained from commercial sources. Linezolid 600 mg IV was administered as a 30 minute infusion.
Efficacy analyses were performed on several populations of subjects. Subjects were analyzed for efficacy according to randomization, regardless of treatment administered.
The Intent-to-Treat (ITT) population includes all enrolled subjects who received at least one dose of study medication.
The modified Intent-to-Treat (mITT) population comprises all subjects in the ITT population who have an Infecting Pathogen isolated at prior to administration of the study compound. […]

[2] = tested on: MRSA; assay: Phase 2 CSSSI study, clinical outcome by organism: MRSA; assay type: in vivo, Staphylococcus aureus
Procedure: as §1
(§3) An infecting pathogen was defined as an isolate derived from the last positive culture taken from the site of infection under study prior to and including day 1.

[3] = tested on: B-Strep; assay: Phase 2 CSSSI study, clinical outcome by organism: B-Strep; assay type: in vivo, B-streptococci
Procedure: as §1, §3

[4] = tested on: GNR; assay: Phase 2 CSSSI study, clinical outcome by organism: GNR; assay type: in vivo, gram-negative rods; conditions: ME population
Procedure: as §1, §3

[5] = tested on: Viridans Strep; assay: Phase 2 CSSSI study, clinical outcome by organism: Viridans Strep; assay type: in vivo, Viridans Streptococci; conditions: ME population
Procedure: as §1, §3

[6] = tested on: Enterococcus; assay: Phase 2 CSSSI study, clinical outcome by organism: Enterococcus; assay type: in vivo; conditions: ME population
Procedure: as §1, §3

[7] = tested on: Mixed GPC; assay: Phase 2 CSSSI study, clinical outcome by organism: Mixed GPC; assay type: in vivo; conditions: ME population
Procedure: as §1, §3

[8] = Phase 2 CSSSI study, safety: ALT level; assay type: in vivo, human
Procedure: as §1, §2

[9] = clinically evaluable population
[10] = microbiologically evaluable population
[11] = as determined in the trials of the Exemplification
[12] = EOT, ALT abnormal at enrollment
[13] = EOT, ALT within normal limits at enrollment
[14] = TOC, ALT abnormal at enrollment
[15] = TOC, ALT within normal limits at enrollment
[16] = max on treatment, ALT abnormal at enrollment
[17] = max on treatment, ALT within normal limits at enrollment

## CN(C)c1cc(CNCC(C)(C)C)c(O)c2c1C[C@H]1C[C@H]3[C@H](N(C)C)C(O)=C(C(N)=O)C(=O)[C@@]3(O)C(O)=C1C2=O [Compound 1, 9-[(2,2-dimethyl-propylamino)-methyl]-minocycline]
[1]; ITT population
  Clinical Failure (% of subjects): (11.7%)
  Clinical Failure (number of subjects): 13
  Clinical Failure: Failure (% of subjects): (1.8%)
  Clinical Failure: Failure (number of subjects): 2
  Clinical Failure: Nonevaluable (% of subjects): (9.9%)
  Clinical Failure: Nonevaluable (number of subjects): 11
  Clinical Success (% of subjects): (88.3%)
  Clinical Success (number of subjects): 98
[1]; ITT population, listed as compound 1
  Clinical Success (% of subjects): 88.3%
[1]; [9]
  Clinical Failure (% of subjects): 2.0%
  Clinical Failure (number of subjects): 2
  Clinical Success (% of subjects): 98.0%
  Clinical Success (number of subjects): 98
[1]; clinically evaluable population, listed as compound 1
  Clinical Success (% of subjects): 98%
[1]; mITT population
  Clinical Failure (% of subjects): (10.7%)
  Clinical Failure (number of subjects): 9
  Clinical Failure: Failure (% of subjects): (2.4%)
  Clinical Failure: Failure (number of subjects): 2
  Clinical Failure: Nonevaluable (% of subjects): (8.3%)
  Clinical Failure: Nonevaluable (number of subjects): 7
  Clinical Success (% of subjects): (89.3%)
  Clinical Success (number of subjects): 75
[1]; [10]
  Clinical Failure (% of subjects): 2.6%
  Clinical Failure (number of subjects): 2
  Clinical Success (% of subjects): 97.4%
  Clinical Success (number of subjects): 75
[2]; ME population, MRSA
  Clinical outcome Failure (number): 0
  Clinical outcome Success (number): 42
[2]; ME population, MRSA, listed as compound 1
  Clinical outcome Failure (number): none
[2]; [11]
  clinical success rate against MRSA: 100%
[3]; ME population, B-Strep
  Clinical outcome Failure (number): 0
  Clinical outcome Success (number): 6
[3]; [11]
  clinical success rate against B. streptococci: 100%
[4]
  Clinical outcome Failure (number): 2
  Clinical outcome Success (number): 7
[5]
  Clinical outcome Failure (number): 1
  Clinical outcome Success (number): 3
[6]
  Clinical outcome Failure (number): 1
  Clinical outcome Success (number): 1
[7]
  Clinical outcome Failure (number): 2
  Clinical outcome Success (number): 16
[8]; [12]
  ALT Increase: >2x ULN and 2x baseline (number): 0
  ALT NS: >ULN and <2x baseline (%): 84.6%
  ALT NS: >ULN and <2x baseline (number): 11
  ALT Within normal limits (%): 15.4%
  ALT Within normal limits (number): 2
[8]; [13]
  ALT 1x-2x (%): 6.5%
  ALT 1x-2x (number): 6
  ALT 2x-3x (number): 0
  ALT >3x (number): 0
  ALT Within normal limits (%): 93.5%
  ALT Within normal limits (number): 86
[8]; [14]
  ALT Increase: >2x ULN and 2x baseline (%): (7.7%)
  ALT Increase: >2x ULN and 2x baseline (number): 1
  ALT NS: >ULN and <2x baseline (%): (69.2%)
  ALT NS: >ULN and <2x baseline (number): 9
  ALT Within normal limits (%): (23.1%)
  ALT Within normal limits (number): 3
[8]; [15]
  ALT 1x-2x (%): (5.6%)
  ALT 1x-2x (number): 5
  ALT 2x-3x (number): 0
  ALT >3x (number): 0
  ALT Within normal limits (%): (94.4%)
  ALT Within normal limits (number): 85
[8]; [16]
  ALT Increase: >2x ULN and 2x baseline (%): (14.3%)
  ALT Increase: >2x ULN and 2x baseline (number): 2
  ALT NS: >ULN and <2x baseline (%): (78.6%)
  ALT NS: >ULN and <2x baseline (number): 11
  ALT Within normal limits (%): (7.1%)
  ALT Within normal limits (number): 1
[8]; [17]
  ALT 1x-2x (%): (12.4%)
  ALT 1x-2x (number): 12
  ALT 2x-3x (number): 0
  ALT >3x (%): (1.0%)
  ALT >3x (number): 1
  ALT Within normal limits (%): (86.6%)
  ALT Within normal limits (number): 84
